Consider 23 compounds from patent publication US7446199B2, “Compositions useful as inhibitors of protein kinases” (Vertex Pharmaceuticals Incorporated, priority 2003, dated 2008).

One assay concerns the target T1, JAK3 (Homo sapiens, UniProt P52333).
T1 sequence (P52333 1-1124): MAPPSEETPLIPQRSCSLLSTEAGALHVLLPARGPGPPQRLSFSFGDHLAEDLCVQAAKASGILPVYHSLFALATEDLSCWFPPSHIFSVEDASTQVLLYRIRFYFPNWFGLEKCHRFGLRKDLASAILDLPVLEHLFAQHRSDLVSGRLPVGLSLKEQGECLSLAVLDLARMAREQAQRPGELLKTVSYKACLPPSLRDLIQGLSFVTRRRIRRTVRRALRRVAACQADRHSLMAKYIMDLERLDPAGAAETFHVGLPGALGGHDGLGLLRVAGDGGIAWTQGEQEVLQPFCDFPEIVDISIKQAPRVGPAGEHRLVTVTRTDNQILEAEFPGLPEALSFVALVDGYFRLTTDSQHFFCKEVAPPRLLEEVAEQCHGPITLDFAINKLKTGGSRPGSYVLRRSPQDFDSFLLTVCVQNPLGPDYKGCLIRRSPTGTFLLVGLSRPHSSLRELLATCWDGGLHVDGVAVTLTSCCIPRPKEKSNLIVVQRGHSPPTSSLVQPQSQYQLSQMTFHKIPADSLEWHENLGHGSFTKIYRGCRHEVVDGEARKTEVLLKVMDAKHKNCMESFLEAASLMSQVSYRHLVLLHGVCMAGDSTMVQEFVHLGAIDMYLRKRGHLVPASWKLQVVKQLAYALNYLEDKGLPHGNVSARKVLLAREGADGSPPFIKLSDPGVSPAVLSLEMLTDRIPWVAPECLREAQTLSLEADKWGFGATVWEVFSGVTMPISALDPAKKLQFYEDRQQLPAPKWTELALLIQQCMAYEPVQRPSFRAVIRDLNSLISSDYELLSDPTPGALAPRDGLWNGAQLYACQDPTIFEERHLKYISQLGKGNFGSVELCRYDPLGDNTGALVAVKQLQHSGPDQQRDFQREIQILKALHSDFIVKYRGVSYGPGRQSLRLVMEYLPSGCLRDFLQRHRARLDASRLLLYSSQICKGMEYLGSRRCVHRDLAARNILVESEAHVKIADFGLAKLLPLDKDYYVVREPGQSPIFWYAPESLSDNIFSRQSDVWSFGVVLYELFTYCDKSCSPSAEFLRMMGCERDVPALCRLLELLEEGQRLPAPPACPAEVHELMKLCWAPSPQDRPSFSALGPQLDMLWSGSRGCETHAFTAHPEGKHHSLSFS
Nature of the assay: JAK3 inhibition assay (ELISA, Poly (Glu, Ala, Tyr) coated plates). Format: biochemical. The settings on record: 2 mM ATP, 60 minutes at 30° C. The essentials: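 ELISA on Poly(Glu,Ala,Tyr) 6:3:1-coated plates with 2 mM ATP and 5 mM MgCl2. JAK enzyme started the reaction, run 60 min at 30° C. Phosphotyrosine was detected with HRP-conjugated 4G10 antibody and TMB, read at 450 nm, and IC50 was derived from optical densities.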
(In general: ELISA stands for enzyme-linked immunosorbent assay.)

The next assay concerns the target KDR (Homo sapiens, UniProt P35968). Nature of the assay: KDR enzyme assay, coupled enzyme assay. Format: biochemical. The conditions noted are these: 300 μM ATP, 10 μM poly E4Y, 30 nM KDR, 37° C. How it is done:
Compounds were screened for their ability to inhibit KDR using a standard coupled enzyme assay (Fox et al., Protein Sci., (1998) 7, 2249). Assays were carried out in a mixture of 200 mM HEPES 7.5, 10 mM MgCl2, 25 mM NaCl, 1 mM DTT and 1.5% DMSO. Final substrate concentrations in the assay were 300 μM ATP (Sigma Chemicals) and 10 μM poly E4Y (Sigma). Assays were carried out at 37° C. and 30 nM KDR. Final concentrations of the components of the coupled enzyme system were 2.5 mM phosphoenolpyruvate, 200 μM NADH, 30 μg/ML pyruvate kinase and 10 μg/ml lactate dehydrogenase.
An assay stock buffer solution was prepared containing all of the reagents listed above, with the exception of ATP and the test compound of interest. 177 μl of the stock solution was placed in a 96 well plate followed by addition of 3 μl of 2 mM DMSO stock containing the test compound (final compound concentration 30 μM). The plate was preincubated for about 10 minutes at 37° C. and the reaction initiated by addition of 20 μl of ATP (final concentration 300 μM). Rates of reaction were obtained using a Molecular Devices plate reader (Sunnyvale, Calif.) over a 5 minute read time at 37° C.

Where only a bound is given, the exact number is not on record here.

KDR, sequence (P35968 20-1356): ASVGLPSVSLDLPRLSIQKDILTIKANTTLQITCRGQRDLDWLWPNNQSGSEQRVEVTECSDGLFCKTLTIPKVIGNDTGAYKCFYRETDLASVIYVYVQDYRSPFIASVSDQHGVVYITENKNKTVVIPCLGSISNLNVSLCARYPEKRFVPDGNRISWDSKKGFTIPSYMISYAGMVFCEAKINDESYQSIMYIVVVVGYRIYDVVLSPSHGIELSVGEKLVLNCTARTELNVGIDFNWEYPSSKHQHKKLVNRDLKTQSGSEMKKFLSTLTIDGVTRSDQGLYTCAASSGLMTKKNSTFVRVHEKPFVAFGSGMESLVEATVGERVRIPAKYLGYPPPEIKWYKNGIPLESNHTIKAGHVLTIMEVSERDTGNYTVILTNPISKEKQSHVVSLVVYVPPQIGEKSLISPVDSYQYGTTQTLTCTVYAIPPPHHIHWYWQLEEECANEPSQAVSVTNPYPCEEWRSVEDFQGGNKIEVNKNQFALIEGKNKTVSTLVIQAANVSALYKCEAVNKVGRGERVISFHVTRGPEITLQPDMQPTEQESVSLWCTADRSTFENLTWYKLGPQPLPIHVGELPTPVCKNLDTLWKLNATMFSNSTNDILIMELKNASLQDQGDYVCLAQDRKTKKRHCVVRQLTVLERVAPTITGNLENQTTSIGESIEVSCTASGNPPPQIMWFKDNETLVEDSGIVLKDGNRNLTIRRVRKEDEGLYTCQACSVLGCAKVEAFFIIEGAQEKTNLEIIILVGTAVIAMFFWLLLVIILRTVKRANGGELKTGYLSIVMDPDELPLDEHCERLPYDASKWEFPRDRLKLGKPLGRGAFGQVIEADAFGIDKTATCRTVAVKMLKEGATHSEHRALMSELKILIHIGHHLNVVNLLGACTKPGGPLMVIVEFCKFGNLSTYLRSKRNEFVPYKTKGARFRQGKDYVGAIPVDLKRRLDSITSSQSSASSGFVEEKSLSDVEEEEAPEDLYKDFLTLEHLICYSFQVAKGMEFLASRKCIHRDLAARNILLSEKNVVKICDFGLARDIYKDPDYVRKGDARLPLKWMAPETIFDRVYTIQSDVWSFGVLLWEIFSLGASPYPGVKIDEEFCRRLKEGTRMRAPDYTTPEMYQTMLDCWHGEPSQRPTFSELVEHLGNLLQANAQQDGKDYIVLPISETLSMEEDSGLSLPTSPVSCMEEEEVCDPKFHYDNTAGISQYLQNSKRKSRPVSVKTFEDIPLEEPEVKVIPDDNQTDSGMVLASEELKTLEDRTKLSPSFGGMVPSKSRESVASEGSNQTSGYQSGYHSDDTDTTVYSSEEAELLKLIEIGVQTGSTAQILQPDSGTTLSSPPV

Broadly, the Ki is a dissociation constant, usually derived from enzyme kinetics or from competition with a known ligand. Read a low Ki as higher affinity. Regarding `c1cnc2[nH]cc(-c3oncc3C3CCCCC3)c2c1` [Compound 47, 3-(4-Cyclohexyl-isoxazol-5-yl)-1H-pyrrolo[2,3-b]pyridine], the Ki at JAK3 was 200 to 1000 nM; on KDR it was 1000 to 12500 nM.
Turning to `Clc1cccc(-c2cnoc2-c2c[nH]c3ncccc23)c1Cl` [Compound 2, 3-[4-(2,3-Dichloro-phenyl)-isoxazol-5-yl]-1H-pyrrolo[2,3-b]pyridine], the Ki at JAK3 and at KDR was 200 to 1000 nM each time.
Regarding `Fc1cccc(-c2cnoc2-c2c[nH]c3ncc(-c4ncccn4)cc23)c1F` [Compound 75, 3-[4-(2,3-Difluoro-phenyl)-isoxazol-5-yl]-5-pyrimidin-2-yl-1H-pyrrolo[2,3-b]pyridine], the Ki on JAK3 was less than 200 nM; on KDR, 200 to 1000 nM.
With `Fc1cccnc1-c1cnc2[nH]cc(-c3oncc3-c3cccc(F)c3F)c2c1` [Compound 74, 3-[4-(2,3-Difluoro-phenyl)-isoxazol-5-yl]-5-(3-fluoro-pyridin-2-yl)-1H-pyrrolo[2,3-b]pyridine], the Ki lay within 200 to 1000 nM on JAK3 and 1000 to 12500 nM at KDR.
`CC(=O)N1CCC(c2cnc3[nH]cc(-c4oncc4-c4cccc(F)c4F)c3c2)CC1` [Compound 63, 1-(4-{3-[4-(2,3-Difluoro-phenyl)-isoxazol-5-yl]-1H-pyrrolo[2,3-b]pyridin-5-yl}-piperidin-1-yl)-ethanone]: the Ki on JAK3 lay within 200 to 1000 nM; at KDR it was 1000 to 12500 nM.
For `Cc1noc(-c2c[nH]c3ncccc23)c1-c1cccc(F)c1F` [Compound 134, 3-[4-(2,3-Difluoro-phenyl)-3-methyl-isoxazol-5-yl]-1H-pyrrolo[2,3-b]pyridine], in that order: 200 to 1000 nM and 1000 to 12500 nM.
With `Fc1cccc(Cc2cnoc2-c2c[nH]c3ncccc23)c1F` [Compound 36, 3-[4-(2,3-Difluoro-benzyl)-isoxazol-5-yl]-1H-pyrrolo[2,3-b]pyridine], the Ki on JAK3 and on KDR was 1000 to 12500 nM in each case.
Turning to `CNc1ccc2c(-c3oncc3-c3cccc(F)c3F)c[nH]c2n1` [Compound 102, {3-[4-(2,3-Difluoro-phenyl)-isoxazol-5-yl]-1H-pyrrolo[2,3-b]pyridin-6-yl}-methyl-amine], the Ki on JAK3 and on KDR was 1000 to 12500 nM each time.
As for `CS(=O)(=O)n1ccc2cc(-c3cnc4[nH]cc(-c5oncc5-c5cccc(F)c5F)c4c3)cnc21` [Compound 97, 3′-[4-(2,3-Difluoro-phenyl)-isoxazol-5-yl]-1-methanesulfonyl-1H, 1′H-[5,5′]bi[pyrrolo[2,3-b]pyridinyl]], the inhibitory constant (Ki) at JAK3 is 200 to 1000 nM; on KDR, less than 200 nM.
Consider `Fc1c(Cl)cccc1-c1cnoc1-c1c[nH]c2ncccc12` [Compound 42, 3-[4-(3-Chloro-2-fluoro-phenyl)-isoxazol-5-yl]-1H-pyrrolo[2,3-b]pyridine], for which the Ki at JAK3 and at KDR was 200 to 1000 nM in each case.
Take `CN(C)Cc1cc(Cl)nc(-c2cnc3[nH]cc(-c4oncc4-c4cccc(F)c4F)c3c2)c1` [Compound 81, (2-Chloro-6-{3-[4-(2,3-difluoro-phenyl)-isoxazol-5-yl]-1H-pyrrolo[2,3-b]pyridin-5-yl}-pyridin-4-ylmethyl)-dimethyl-amine]: the Ki is 200 to 1000 nM on JAK3 and less than 200 nM at KDR.
As for `Fc1cccc(-c2cnoc2-c2c[nH]c3ncc(-c4ccccc4)cc23)c1F` [Compound 58, 3-[4-(2,3-Difluoro-phenyl)-isoxazol-5-yl]-5-phenyl-1H-pyrrolo[2,3-b]pyridine], the Ki at JAK3 and at KDR was less than 200 nM in each case.
With `O=c1[nH]ccc2c(-c3oncc3-c3cccc(F)c3F)c[nH]c12` [Compound 145, 3-[4-(2,3-Difluoro-phenyl)-isoxazol-5-yl]-1,6-dihydro-pyrrolo[2,3-c]pyridin-7-one], the Ki at JAK3 is 200 to 1000 nM.
As to `Fc1cccc(-c2cnoc2-c2c[nH]c3ncc(Br)cc23)c1F` [Compound 37, 5-Bromo-3-[4-(2,3-difluoro-phenyl)-isoxazol-5-yl]-1H-pyrrolo[2,3-b]pyridine], the Ki is less than 200 nM at JAK3 and 200 to 1000 nM on KDR.
For `CN(C)C(=O)c1ccc(-c2cnc3[nH]cc(-c4oncc4-c4cccc(F)c4F)c3c2)nc1` [Compound 79, 6-{3-[4-(2,3-Difluoro-phenyl)-isoxazol-5-yl]-1H-pyrrolo [2,3-b]pyridin-5-yl}-N,N-dimethyl-nicotinamide], in that order: less than 200 nM and less than 200 nM.
Turning to `Fc1cccc(-c2cnoc2-c2c[nH]c3ncc(/C=C/n4cncn4)cc23)c1F` [Compound 133, 3-[4-(2,3-Difluoro-phenyl)-isoxazol-5-yl]-5-(2-[1,2,4]triazol-1-yl-vinyl)-1H-pyrrolo[2,3-b]pyridine], the Ki on JAK3 and at KDR was less than 200 nM throughout.
For the compound `C=Cc1cnc2[nH]cc(-c3oncc3-c3cccc(F)c3F)c2c1` [Compound 66, 3-[4-(2,3-Difluoro-phenyl)-isoxazol-5-yl]-5-vinyl-1H-pyrrolo[2,3-b]pyridine], the Ki at JAK3 and on KDR was less than 200 nM throughout.
For `Nc1[nH]c2ncccc2c1-c1oncc1-c1cccc(F)c1F` [Compound 152], at JAK3, the Ki fell in the range of 1000 to 12500 nM.
For the compound `N#CCC(=O)N1CCC(c2cnc3[nH]cc(-c4oncc4-c4cccc(F)c4F)c3c2)CC1` [Compound 64, 3-(4-{3-[4-(2,3-Difluoro-phenyl)-isoxazol-5-yl]-1H-pyrrolo[2,3-b]pyridin-5-yl}-piperidin-1-yl)-3-oxo-propionitrile], the Ki lay within 200 to 1000 nM on JAK3 and 1000 to 12500 nM at KDR.
As for `CN1CCN(C(=O)[C@H]2C[C@H]2c2cnc3[nH]cc(-c4oncc4-c4cccc(F)c4F)c3c2)CC1` (relative stereo) [Compound 143, cis-(2-{3-[4-(2,3-Difluoro-phenyl)-isoxazol-5-yl]-1H-pyrrolo[2,3-b]pyridin-5-yl}-cyclopropyl)-(4-methyl-piperazin-1-yl)-methanone], the Ki on JAK3 is 1000 to 12500 nM.
In the case of `CN(C)c1ccnc2[nH]cc(-c3oncc3-c3cccc(F)c3F)c12` [Compound 56, {3-[4-(2,3-Difluoro-phenyl)-isoxazol-5-yl]-1H-pyrrolo[2,3-b]pyridin-4-yl}-dimethyl-amine], the Ki on JAK3 and at KDR was 200 to 1000 nM each time.
For `CN(C)c1ccnc(-c2cnc3[nH]cc(-c4oncc4-c4cccc(F)c4F)c3c2)c1` [Compound 80, (2-{3-[4-(2,3-Difluoro-phenyl)-isoxazol-5-yl]-1H-pyrrolo[2,3-b]pyridin-5-yl}-pyridin-4-yl)-dimethyl-amine], the Ki at JAK3 is 1000 to 12500 nM; at KDR, less than 200 nM.
For `CS(=O)(=O)Nc1ccc(-c2cnc3[nH]cc(-c4oncc4-c4cccc(F)c4F)c3c2)cc1` [Compound 98, N-(4-{3-[4-(2,3-Difluoro-phenyl)-isoxazol-5-yl]-1H-pyrrolo[2,3-b]pyridin-5-yl}-phenyl)-methane sulfonamide], the Ki at JAK3 and on KDR was less than 200 nM in each case.
